# Experimental data as given in US20070173462A1, “Treatment of diseases associated with the use of antibiotics” (Optimer Pharmaceuticals, Inc., priority 2004, published 2007).
# Tests used:
# [1] = system: Non-spore forming Gram positive rods; experiment: organism not typed; format: cell-based; details: clinical gastrointestinal isolates, n=64
# C. sordellii = experiment: microbe, parasite or virus in culture; format: cell-based; details: clinical isolates, n=5
# Enterococcus sp. = experiment: microbe, parasite or virus in culture; format: cell-based; details: clinical gastrointestinal isolates, n=22
# C. clostridioforme = experiment: organism not typed; format: cell-based; details: clinical isolates, n=5
# C. paraputrificum = experiment: microbe, parasite or virus in culture; format: cell-based; details: clinical isolates, n=10
# Pseudomonas sp. = experiment: MIC, clinical isolates (Table 3); format: cell-based; details: n=15
# Source text: (§1) Compound I was additionally tested against anaerobic clinical isolates and against aerobic bacteria. […] The compound was also active against clinical strains of Staphylococcus sp. and Enterococcus sp.
# Lactobacillus sp. = experiment: MIC, clinical isolates (Table 3); format: cell-based; details: n=8, in µg/mL
# Source text: as §1
# C. ramosum = experiment: microbe, parasite or virus in culture; format: cell-based; details: Thomasclavelia ramosa; clinical isolates, n=10
# Streptococcus sp. = experiment: microbe, parasite or virus in culture; format: cell-based; details: clinical gastrointestinal isolates, n=9
# C. innocuum = experiment: microbe, parasite or virus in culture; format: cell-based; details: [Clostridium] innocuum; clinical isolates, n=9
# Stephylococcus sp. = experiment: organism not typed; format: cell-based; details: clinical gastrointestinal isolates, n=19
# toxigenic C. difficile = experiment: Hamster model of clindamycin-induced Clostridium difficile associated diarrhea/colitis; format: in vivo, Syrian hamsters
# Experimental: Animals were treated with two oral doses of clindamycin at 100 mg/kg. Three days after the second dose of clindamycin, they were inoculated with toxigenic C. difficile spores. […] Animals were observed daily for the presence or absence of diarrhea. Necropsies were performed on some animals that died during the experiment, and cecal contents were assayed for C. difficile toxin A. Hamsters were monitored for 20 days, and the cumulative mortality during this period was recorded (FIG. 1).
# [2] = system: Streptococcus milleri group; experiment: microbe, parasite or virus in culture; format: cell-based; details: clinical gastrointestinal isolates, n=14
compound,measurement,setting,value
CCc1c(Cl)c(O)c(Cl)c(O)c1C(=O)O[C@H]1[C@H](O)[C@H](OC)[C@H](OC/C2=C\C=C\C[C@H](O)/C(C)=C/[C@H](CC)C(O[C@@H]3OC(C)(C)[C@@H](OC(=O)C(C)C)[C@H](O)[C@@H]3O)/C(C)=C/C(C)=C/C[C@@H](C(C)O)OC2=O)O[C@@H]1C (stereo partly shown) [Compound I],MIC50,[1],1 µg/mL
same,MIC90,[1],32 µg/mL
same,MIC50,C. sordellii; Paraclostridium sordellii,0.062 µg/mL
same,MIC90,C. sordellii; Paraclostridium sordellii,0.062 µg/mL
same,Range (MIC),C. sordellii,0.062 µg/mL
same,MIC50,Enterococcus sp.; Enterococcus,8 µg/mL
same,MIC90,Enterococcus sp.; Enterococcus,8 µg/mL
same,Range (MIC),Enterococcus sp.,0.5-16^ μg/mL
same,MIC50,C. clostridioforme,4 µg/mL
same,MIC90,C. clostridioforme,> 1020 µg/mL
same,MIC50,C. paraputrificum; Clostridium paraputrificum,8 µg/mL
same,MIC90,C. paraputrificum; Clostridium paraputrificum,32 µg/mL
same,Range (MIC),C. paraputrificum,0.062-64 ^ μg/mL
same,MIC50,Pseudomonas sp.; Pseudomonas,> 64 µg/mL
same,Range (MIC),Pseudomonas sp.,> 64 µg/mL
same,Range (MIC),Lactobacillus sp.,8-32
same,MIC50,C. ramosum,> 1020 µg/mL
same,MIC90,C. ramosum,> 1020 µg/mL
same,MIC50,Streptococcus sp.; Streptococcus,32 µg/mL
same,MIC90,Streptococcus sp.; Streptococcus,128 µg/mL
same,Range (MIC),Streptococcus sp.,16 to 128 µg/mL
same,MIC50,C. innocuum,> 1020 µg/mL
same,MIC90,C. innocuum,> 1020 µg/mL
same,MIC50,Stephylococcus sp.,0.5 µg/mL
same,MIC90,Stephylococcus sp.,1 µg/mL
same,Range (MIC),Stephylococcus sp.,0.25-2 ^ μg/mL
same,ED50,"toxigenic C. difficile; Clostridioides difficile, oral, 7 days, started 8 hours after infection, hamsters monitored 20 days",< 0.3 mg/kg
same,protection from infection (cumulative mortality over 20 days),"toxigenic C. difficile; oral treatment for 7 days, untreated infection uniformly fatal between days two and six",protected the animals from infection
same,MIC50,[2]; Streptococcus milleri,32 µg/mL
same,MIC90,[2]; Streptococcus milleri,32 µg/mL
same,Range (MIC),[2],16 to 64 µg/mL
